Values joined by “and” are separate entries in the source; they are usually repeats but may differ in a detail not shown here. Identical values can stand only once.
Columns and labels:
[1] = Liquid
[2] = mn = molality of the nth substance listed, in mol/kg; conditions: Liquid; for speed of sound: Pulse-echo method

CO [methanol]
[1]
Conditions | mass density
283.15 K | 800.575 kg/m3 [middle of 4 runs]
288.15 K | 795.888 kg/m3 [middle of 4 runs]
293.15 K | 791.194 kg/m3 and 791.243 kg/m3 and 791.184 kg/m3
298.15 K | 786.534 kg/m3 and 786.475 kg/m3 and 786.485 kg/m3
303.15 K | 781.758 kg/m3 [middle of 4 runs]
308.15 K | 777.058 kg/m3 and 776.997 kg/m3 and 777.007 kg/m3
313.15 K | 772.28 kg/m3 and 772.219 kg/m3 and 772.229 kg/m3

Conditions | speed of sound [m/s]
[1], 298.15 K, 101.33 kPa, Pulse-echo method | 1102.4

CO [methanol] + [Br-].[Na+]
[2], m2 = 0
Conditions | mass density [kg/m3]
283.15 K | 800.625
288.15 K | 795.934
293.15 K | 791.243
298.15 K | 786.534
303.15 K | 781.808
308.15 K | 777.058
313.15 K | 772.28

CO [methanol] + [Br-].c1ccc([P+](c2ccccc2)(c2ccccc2)c2ccccc2)cc1
[2], m2 = 0
Conditions | mass density [kg/m3]
283.15 K | 800.567
288.15 K | 795.88
293.15 K | 791.184
298.15 K | 786.475
303.15 K | 781.748
308.15 K | 776.997
313.15 K | 772.219

CO [methanol] + [Na+].[O-][Cl+3]([O-])([O-])[O-]
[2], m2 = 0
Conditions | mass density [kg/m3]
283.15 K | 800.568
288.15 K | 795.879
293.15 K | 791.184
298.15 K | 786.475
303.15 K | 781.746
308.15 K | 776.997
313.15 K | 772.219

CO [methanol] + [Na+].c1ccc([B-](c2ccccc2)(c2ccccc2)c2ccccc2)cc1
[2], m2 = 0
Conditions | mass density [kg/m3]
283.15 K | 800.575
288.15 K | 795.888
293.15 K | 791.194
298.15 K | 786.485
303.15 K | 781.758
308.15 K | 777.007
313.15 K | 772.229

[Br-].[Na+] [sodium bromide] + CO
[2]
Conditions | mass density, 283.15 K [kg/m3] | mass density, 288.15 K [kg/m3] | mass density, 293.15 K [kg/m3] | mass density, 298.15 K [kg/m3] | mass density, 303.15 K [kg/m3] | mass density, 308.15 K [kg/m3] | mass density, 313.15 K [kg/m3] | speed of sound, 298.15 K [m/s]
m1 = 0.06477 | 805.613 | 800.933 | 796.252 | 791.558 | 786.848 | 782.114 | 777.354 | 1106.1
m1 = 0.08313 | 807.039 | 802.363 | 797.683 | 792.99 | 788.28 | 783.548 | 778.794 | 1107.1
m1 = 0.1039 | 808.613 | 803.939 | 799.259 | 794.566 | 789.865 | 785.138 | 780.385 | 1107.7
m1 = 0.1241 | 810.154 | 805.482 | 800.807 | 796.119 | 791.41 | – | – | 1108.7
m1 = 0.1439 | 811.667 | 806.995 | 802.323 | 797.64 | 792.938 | 788.218 | 783.471 | 1109.1
m1 = 0.1639 | 813.155 | 808.489 | 803.818 | 799.135 | 794.436 | 789.716 | 784.971 | –
m1 = 0.2071 | 816.441 | 811.772 | 807.109 | 802.43 | 797.736 | 793.019 | 788.281 | 1111.8
m1 = 0.2491 | 819.583 | 814.916 | 810.253 | 805.577 | 800.887 | 796.174 | 791.44 | 1113.2
m1 = 0.2915 | 822.759 | 818.104 | 813.441 | 808.767 | 804.078 | 799.369 | 794.64 | 1114.9
m1 = 0.3318 | 825.782 | 821.118 | 816.459 | 811.79 | 807.103 | 802.396 | 797.671 | 1116.1
m1 = 0.3735 | 828.905 | 824.245 | 819.585 | 814.919 | 810.236 | 805.533 | 800.808 | 1117.6
m1 = 0.4167 | 832.098 | 827.443 | 822.783 | 818.116 | 813.434 | 808.735 | 804.019 | 1119.2

[Na+].c1ccc([B-](c2ccccc2)(c2ccccc2)c2ccccc2)cc1 [sodium tetraphenylboron] + CO
[2]
Conditions | mass density, 283.15 K [kg/m3] | mass density, 288.15 K [kg/m3] | mass density, 293.15 K [kg/m3] | mass density, 298.15 K [kg/m3] | mass density, 303.15 K [kg/m3] | mass density, 308.15 K [kg/m3] | mass density, 313.15 K [kg/m3] | speed of sound, 298.15 K [m/s]
m1 = 0.02864 | 803.855 | 799.183 | 794.505 | 789.813 | 785.107 | 780.377 | 775.618 | –
m1 = 0.03742 | 804.851 | 800.185 | 795.511 | 790.825 | 786.118 | 781.392 | 776.646 | –
m1 = 0.04715 | 805.936 | 801.274 | 796.607 | 791.928 | 787.23 | 782.507 | – | –
m1 = 0.05653 | 806.979 | 802.323 | 797.659 | 792.985 | 788.298 | 783.585 | 778.847 | –
m1 = 0.06567 | 807.991 | 803.338 | 798.679 | 794.015 | 789.33 | 784.622 | 779.888 | 1114.1
m1 = 0.07566 | 809.099 | 804.455 | 799.8 | 795.14 | 790.46 | 785.759 | 781.031 | 1115.7
m1 = 0.09526 | 811.246 | 806.611 | 801.967 | 797.318 | 792.652 | 787.962 | 783.246 | 1119
m1 = 0.1146 | 813.35 | 808.726 | 804.095 | 799.453 | 794.791 | 790.107 | 785.409 | 1122.4
m1 = 0.1339 | 815.434 | 810.82 | 806.2 | 801.569 | 796.921 | 792.253 | 787.56 | 1125.7
m1 = 0.1529 | 817.425 | 812.819 | 808.212 | 803.59 | 798.952 | 794.294 | 789.61 | 1128.3
m1 = 0.173 | 819.579 | 814.984 | 810.383 | 805.772 | 801.145 | 796.5 | 791.829 | 1131.7
m1 = 0.1931 | 821.677 | 817.092 | 812.503 | 807.899 | 803.28 | 798.648 | 793.987 | 1135.5

[Br-].c1ccc([P+](c2ccccc2)(c2ccccc2)c2ccccc2)cc1 [tetraphenylphosphorane bromide] + CO
[2]
Conditions | mass density, 283.15 K [kg/m3] | mass density, 288.15 K [kg/m3] | mass density, 293.15 K [kg/m3] | mass density, 298.15 K [kg/m3] | mass density, 303.15 K [kg/m3] | mass density, 308.15 K [kg/m3] | mass density, 313.15 K [kg/m3] | speed of sound, 298.15 K [m/s]
m1 = 0.0261 | 804.518 | 799.837 | 795.15 | 790.45 | 785.734 | 780.996 | 776.229 | 1106.5
m1 = 0.03452 | 805.776 | 801.095 | 796.408 | 791.716 | 787.003 | 782.267 | 777.504 | 1107.7
m1 = 0.04277 | 807.01 | 802.333 | 797.652 | 792.957 | 788.242 | 783.515 | 778.757 | 1109.1
m1 = 0.05089 | 808.208 | 803.532 | 798.856 | 794.167 | 789.459 | 784.728 | 779.972 | 1110.1
m1 = 0.05974 | – | – | – | – | – | – | – | 1111.4
m1 = 0.06826 | 810.754 | 806.084 | 801.412 | 796.727 | 792.025 | 787.301 | 782.553 | 1112.8
m1 = 0.08592 | 813.321 | 808.661 | 803.994 | 799.314 | 794.618 | 789.901 | 785.158 | 1115.3
m1 = 0.1039 | 815.894 | 811.236 | 806.575 | 801.901 | 797.21 | 792.499 | 787.763 | 1117.8
m1 = 0.1212 | 818.357 | 813.704 | 809.048 | 804.378 | 799.693 | 794.987 | 790.256 | 1119.9
m1 = 0.1384 | 820.799 | 816.147 | 811.492 | 806.831 | 802.152 | 797.452 | 792.728 | 1122.4
m1 = 0.1565 | 823.304 | 818.656 | 814.011 | 809.353 | 804.679 | 799.985 | 795.267 | 1124.7
m1 = 0.1747 | 825.843 | 821.2 | 816.556 | 811.905 | 807.237 | 802.548 | 797.837 | 1127

— the NIST ThermoML archive (doi:10.1016/j.jct.2008.04.008)
